Results on two molecules are retold here after patent US11241436B2, “Autophagy inducers for treatment of CNS conditions” (Northwestern University, priority 2017, dated 2022).

The test system of test [1] is Beclin 2-GASP1 interaction. Description: Coimmunoprecipitation of endogenous GASP1 with Flag-human Beclin 2 in HEK293 cells. The note with it: 3 h. Format: cell-based. The text has this:
Based on this model, the effect of these inducers on the Beclin 2-GASP1 interaction in vitro and in mouse brain were subsequently examined.

The subject of the next test is mouse models of AD. The note with it: cited from earlier work.

As for `N=c1c2c(-c3ccccc3)c(-c3ccccc3)n(Cc3ccccc3)c2ncn1[C@H]1CC[C@H](O)CC1` [ML246], the “coimmunoprecipitation of endogenous GASP1 by Beclin 2” value in test [1] is “potently blocked”. As to `CC(C)=CCC[C@](C)(O)[C@H]1CC[C@]2(C)[C@@H]1[C@H](O)C[C@@H]1[C@@]3(C)CC[C@H](O)C(C)(C)[C@@H]3[C@@H](O[C@@H]3O[C@H](CO)[C@@H](O)[C@H](O)[C@H]3O[C@@H]3O[C@@H](C)[C@H](O)[C@@H](O)[C@H]3O)C[C@]12C` [Rg2, ginsenoside Rg2], the “amyloid burden and memory deficit” value in the test with mouse models of AD was “reduces amyloid burden and memory deficit”.
